Patent US11800869B2, “Use of 6-oxo-1,4,5,6-tetrahydropyridazine-3-carboxylic acid, 1-methyl 6-oxo-1,4,5,6-tetrahydropyridazine-3-carboxylic acid and 1-alkyl-6-oxo-1,4,5,6-tetrahydropyridazine-3-carboxylic acid for improving growth performance in plants” (Advanced Crop Chem LLP, priority 2020, dated 2023)

Experiments:
Type in all cases: in vivo
[1] = test system: wheat plants (Variety Skyfall); assay: Foliar treatment of greenhouse grown wheat, foliar and root biomass (Example 4); details: foliar treatment, 30 days later, Zadocks growth stage 22-24
Procedure: Wheat, corn and pepper seeds were treated with 6-oxo-1,4,5,6-tetrahydropyridizine-3-carboxylic acid (THP) using the same methodology and growth conditions as described in example 1 and the resulting plants were also treated with a light foliar cover spray using an electric hand-held sprayer. (100 g in 200 L water plus 0.25% Nouryon wetter) of 6-oxo-1,4,5,6 tetrahydropyridazine-3-carboxylic acid (30 days post emergence (wheat at Zadoks GS 14 (see FIG. 1), maize at V2, Pepper at 3-4 leaf stage) and then assessed for root and shoot biomass 45 days later. At 75 days post planting the plants were assessed for root and shoot biomass as measured with dry weight. Greenhouse grown wheat plants (Variety […]) were given foliar treatment of 1-methyl 6-oxo-1,4,5,6 tetrahydropyridazine-3-carboxylic acid (MTHP) or 6-oxo-1,4,5,6 tetrahydropyridazine-3-carboxylic acid (THP), utilizing the same methodology as in example 2. Foliar and root biomass were determined 30 days later at Zadocks growth stage 22-24.

[2] = test system: wheat seedlings (Var. VitPro); assay: Foliar treatment of wheat seedlings, number of tillers (Example 13); details: counted at Zadoks GS 15, untreated 3.7
Procedure: Wheat seedlings were given foliar treatments with a range of concentrations of 6-oxo-1,4,5,6 tetrahydropyridazine-3-carboxylic acid and the seedlings were grown and the numbers of tillers each plant produced was monitored as shown in Table 4. The number of tillers is considered positively related to grain yield. Sets of wheat seedlings (Var. VitPro) were given foliar treatments of 6-oxo-1,4,5,6 tetrahydropyridazine-3-carboxylic acid at concentrations of 0.1 mM, 0.01 mM or 0.001 mM *in a standard nutrient solution. Seedlings were given one foliar treatment at Zadoks GS 12 (FIG. 1); the plants grown in a greenhouse and fed a standard plant nutrient solution. The untreated control plants were sprayed with the nutrient solution containing sodium dodecyl sulfate, 0.1% and glycerol 1.2%. The number of tillers for each plant were counted at Zadoks GS 15 (FIG. 1) and the average number of tillers per plant calculated.

[3] = test system: Winter wheat variety AWC 13; assay: Wheat seed treatment, greenhouse, root biomass (Example 1); details: seed treatment 10g per 1 ton of seed; greenhouse 21° C; 30 days after planting; untreated 0.65
Procedure: (§1) Wheat seeds were treated with 6-oxo-1,4,5,6 tetrahydropyridazine-3-carboxylic acid (THP) and treated plants to examine the impact on shoot and root biomass. Winter wheat variety AWC 13 seeds were treated with either 6-oxo-1,4,5,6-tetrahydropyridazine-3-carboxylic acid (THP) or 1-methyl 6-oxo-1,4,5,6 tetrahydropyridazine-3-carboxylic acid (MTHP) at an effective rate of 10g diluted in 2 L water plus 0.25% Nouryon wetter and applied to 1 ton of seed. These seed were planted in coarse river sand and grown in a greenhouse under ambient light at the greenhouse at 21° C. Plants were irrigated every other day with water containing 50% strength Hoaglands solution. Plants were assessed for emergence and biomass accumulation 30 days after planting. The plants from seeds treated with 6-oxo-1,4,5,6-tetrahydropyridizin-3-carboxylic acid or 1-methyl 6-oxo-1,4,5,6 tetrahydropyridazine-3-carboxylic acid had larger root biomasses (0.83, 0.85 g, dry weight/plant) compared with plants from untreated seeds (0.65 g dry weight/plant).

[4] = test system: Wheat seeds; assay: Wheat seed treatment, seedling emergence at two temperatures (Example 15); details: 10 g/ton of seeds
Procedure: Wheat seeds were treated with 6-oxo-1,4,5,6-tetrahydropyridizin-3-carboxylic acid at two different temperature regimes to investigate the affect on germination. Soil temperature impacts the percentage of seeds germinating and how fast seedlings emerge from the soil. Each of these parameters influences how well the plants develop and ultimately crop yield. […] Wheat seeds were treated with 6-oxo-1,4,5,6 tetrahydropyridazine-3-carboxylic acid (THP) at a rate of 10 g/ton of seeds in accordance with the methodology of example 1. Seeds were planted in 12″×12″ germination trays in a 1″ grid, 100 seeds per tray. Growth media was coarse river sand. Additionally, each cell in the grid received one granule of Osmacote approximately above where the seed was planted. Trays were irrigated every day. The seeds were then allowed to germinate at controlled environment chambers at either 10C (50F) or 20C (68 F) to examine the effects at different temperatures. The number of seedlings emerged was tracked daily.

[5] = test system: Wheat; assay: Seed treatment plus foliar spray, root and shoot biomass and emergence, wheat (Example 2)
Procedure: as §1, with “Winter” for “Wheat seeds were treated with 6-oxo-1,4,5,6 tetrahydropyridazine-3-carboxylic acid (THP) and treated plants to examine the impact on shoot and root biomass. Winter”, “weight/plant). Wheat, corn and pepper seeds were treated with 6-oxo-1,4,5,6-tetrahydropyridizine-3-carboxylic acid (THP) using the same methodology and growth conditions as described in example 1 and the resulting plants were also treated with a light foliar cover spray using an electric hand-held sprayer. (100 g in 200 L water plus 0.25% Nouryon wetter) of 6-oxo-1,4,5,6 tetrahydropyridazine-3-carboxylic acid (30 days post emergence (wheat at Zadoks GS 14 (see FIG. 1), maize at V2, Pepper at 3-4 leaf stage) and then assessed for root and shoot biomass 45 days later. At 75 days post planting the plants were assessed for root and shoot biomass as measured with dry weight.” for “weight/plant).”

[6] = seed treatment plus foliar spray 100 g in 200 L, 75 days post planting

O=C1CCC(C(=O)O)=NN1 [THP, 6-oxo-1,4,5,6 tetrahydropyridazine-3-carboxylic acid]
Dry Weight Shoot ([1]; Con 0.55): 0.74 g
Dry Weight Root ([1]; Con 1.03): 1.45 g
Tillers per plant, average ([2]; foliar treatment 0.001 mM at Zadoks GS 12): 4.1
Tillers per plant, average ([2]; foliar treatment 0.01 mM at Zadoks GS 12): 9.5
Tillers per plant, average ([2]; foliar treatment 0.1 mM at Zadoks GS 12): 7.4
root biomass [3]: 0.83 g, dry weight/plant
% Emergence ([4]; 10 C., 5 days after planting): 0%
% Emergence ([4]; 10 C., 6 days after planting): 0%
% Emergence ([4]; 10 C., 7 days after planting): 11%
% Emergence ([4]; 10 C., 8 days after planting): 19%
% Emergence ([4]; 10 C., 9 days after planting): 27%
% Emergence ([4]; 10 C., 10 days after planting): 60%
% Emergence ([4]; 10 C., 11 days after planting): 68%
% Emergence ([4]; 20 C., 5 days after planting): 14%
% Emergence ([4]; 20 C., 6 days after planting): 48%
% Emergence ([4]; 20 C., 7 days after planting): 80%
% Emergence ([4]; 20 C., 8 days after planting): 100%
% Emergence ([4]; 20 C., 9 days after planting): 100%
% Emergence ([4]; 20 C., 10 days after planting): 100%
% Emergence ([4]; 20 C., 11 days after planting): 100%
Root Dry Weight, % Difference vs Untreated [5, 6]: 12%
Shoot Dry Weight, % Difference vs Untreated [5, 6]: 7%
Emergence, % Difference vs Untreated ([5]; seed treatment, % Emergence at 10 days post planting): 16%
